From PubChem BioAssay (NCI)
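In this assay, cells in 96-well plates receive the compound at five concentrations for 48 hours. Endpoints are linearly interpolated between the surrounding concentrations. The concentration for 50% growth inhibition is given as GI50. TGI: concentration producing complete growth inhibition.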

Each compound was assayed on CCRF-CEM leukemia (assay: inhibition of tumour cell growth, NCI panel, 48 h).

| Structure (SMILES) | TGI | GI50 |
| --- | --- | --- |
| CCOC1NC(=O)c2ccccc21 (stereo not drawn) | > 100 µM | – |
| CCN(C(=O)N[C@H](C(=O)N[C@@H](C)C(=O)OC)C(C)C)c1ccccc1 | > 100 µM | – |
| Cc1cn(C2CC(OC(c3ccccc3)(c3ccccc3)c3ccccc3)C(COC(c3ccccc3)(c3ccccc3)c3ccccc3)O2)c(=O)[nH]c1=O (stereo not drawn) | > 100 µM | – |
| COc1cc(CCCOC2OC(COC3OCC(O)C(O)C3O)C(O)C(O)C2O)cc2cc(-c3ccc4c(c3)OCO4)oc12 (stereo not drawn) | > 69.7 µM | – |
| CCOC(=O)c1ccc(C(=O)/C(C(=O)OC(C)(C)C)=C2\CCCN2C)n1C | > 100 µM | – |
| O=[N+]([O-])c1ccc2nc3c(nc2c1)-c1c2ccccc2cc2cccc-3c12 | > 100 µM | – |
| C(=N/Nc1ccc(-c2nc3ccccc3[nH]2)cc1)/c1c(-c2ccccc2)[nH]c2ccccc12 | > 100 µM | – |
| NNC(=O)c1cccc2c1Oc1ccccc1S2 | > 100 µM | – |
| COc1cc2c(cc1O)CC[n+]1cc3c(OC)c(OC)ccc3cc1-2 | > 100 µM | – |
| Nc1nc(Nc2ccc(OCc3cccc(F)c3)cc2)c2c(n1)[nH]c1ccc(O)cc12 | 9.62 µM | 3.03 µM |
| CCCC[C@@H]1CCN2C[C@@H](O)[C@@H](O)[C@H]2[C@@H]1O | > 100 µM | – |
| Cc1cc(C)nc(NS(=O)(=O)c2ccc(Nc3c4ccccc4nc4c(C(=O)NCCO)cccc34)cc2)n1 | 50.9 µM | – |
| CCOC(=O)c1csc(NC(=O)CCCC#N)n1 | > 100 µM | – |
| COc1ccc(CCCCl)c(C2=NCCc3ccccc32)c1 | > 100 µM | – |
| O=C(CN=C(CN(c1ccccc1)c1ccccc1)Oc1c(Cl)cc(Cl)cc1Cl)n1cnc2ccccc21 | > 100 µM | – |
| C=C1CC=CC(C)(C)C1C/C=C(\C)C(O)CBr (stereo not drawn) | > 100 µM | – |
| CCOC(=O)C(C)NC(=O)N(C)C12CC3CC(CC(C3)C1)C2 (stereo not drawn) | 430 µM | – |
| CCc1cc(=O)n(/C(C)=C/c2ccccc2)n1C | > 100 µM | – |
| Nc1n[nH]c2ccccc12 | > 100 µM | – |
| N/C(CSCCSC/C(N)=N/O)=N\O | > 100 µM | – |

What follows are compounds tested on HCC-2998 colon (assay: inhibition of tumour cell growth, NCI panel, 48 h).

| Structure (SMILES) | TGI | GI50 |
| --- | --- | --- |
| CC(O)(C(=O)N(O)c1ccc(Cl)cc1)c1ccc(Cl)cc1 (stereo not drawn) | 38.7 µM | – |
| CCOP(=O)(OCC)c1cc(-c2ccccc2)ccc1N | > 100 µM | – |
| CC1(C)[C@@H]2C[C@H]1c1cnc(-c3ccccn3)cc1[C@H]2C(O)[C@@H]1c2cc(-c3ccccn3)ncc2[C@H]2C[C@@H]1C2(C)C (stereo partly drawn) | 20.8 µM | – |
| CC1(C)OC(CCO)CN1C(=O)OCc1ccccc1 (stereo not drawn) | > 100 µM | – |
| COc1ccc(N2C(=O)C3c4[nH]c5ccccc5c4C4C(C)CCCC4C3C2=O)cc1 (stereo not drawn) | > 100 µM | – |
| Brc1ccc2c(c1)-c1nc3c(cc1CC2)CCc1ccc(Br)cc1-3 | > 100 µM | – |
| CCOC(=O)Cc1nn2c(=O)cc(C)nc2s1 | > 100 µM | – |
| COP(=O)(CC(=O)C1OC(OCc2ccccc2)C(OCc2ccccc2)C(OCc2ccccc2)C1OCc1ccccc1)OC (stereo not drawn) | 19.2 µM | – |
| CN1c2ccccc2C(=O)NC12CCN(CC1COc3ccccc3O1)CC2 (stereo not drawn) | > 100 µM | – |
| CCOC1NC(=O)c2ccccc21 (stereo not drawn) | > 100 µM | – |
| CCN(C(=O)N[C@H](C(=O)N[C@@H](C)C(=O)OC)C(C)C)c1ccccc1 | 33 µM | – |
| Cc1cn(C2CC(OC(c3ccccc3)(c3ccccc3)c3ccccc3)C(COC(c3ccccc3)(c3ccccc3)c3ccccc3)O2)c(=O)[nH]c1=O (stereo not drawn) | > 100 µM | – |
| COc1cc(CCCOC2OC(COC3OCC(O)C(O)C3O)C(O)C(O)C2O)cc2cc(-c3ccc4c(c3)OCO4)oc12 (stereo not drawn) | > 98.4 µM | – |
| CCOC(=O)c1ccc(C(=O)/C(C(=O)OC(C)(C)C)=C2\CCCN2C)n1C | > 100 µM | – |
| O=[N+]([O-])c1ccc2nc3c(nc2c1)-c1c2ccccc2cc2cccc-3c12 | > 100 µM | – |
| C(=N/Nc1ccc(-c2nc3ccccc3[nH]2)cc1)/c1c(-c2ccccc2)[nH]c2ccccc12 | 1.22 µM | – |
| COc1cc(/C=C/c2cc(=O)cc(/C=C/c3ccc(O)c(OC)c3)o2)ccc1O | > 100 µM | – |
| NNC(=O)c1cccc2c1Oc1ccccc1S2 | > 100 µM | – |
| COc1cc2c(cc1O)CC[n+]1cc3c(OC)c(OC)ccc3cc1-2 | > 100 µM | – |
| NS(=O)(=O)c1nnc(NSc2ccc([N+](=O)[O-])cc2)s1 | > 100 µM | – |
| Nc1nc(Nc2ccc(OCc3cccc(F)c3)cc2)c2c(n1)[nH]c1ccc(O)cc12 | 13.6 µM | 3.46 µM |
| CCCC[C@@H]1CCN2C[C@@H](O)[C@@H](O)[C@H]2[C@@H]1O | > 100 µM | – |
| Cc1cc(C)nc(NS(=O)(=O)c2ccc(Nc3c4ccccc4nc4c(C(=O)NCCO)cccc34)cc2)n1 | 27.8 µM | – |
| CCOC(=O)c1csc(NC(=O)CCCC#N)n1 | > 100 µM | – |
| COc1ccc(CCCCl)c(C2=NCCc3ccccc32)c1 | > 100 µM | – |
| O=C(CN=C(CN(c1ccccc1)c1ccccc1)Oc1c(Cl)cc(Cl)cc1Cl)n1cnc2ccccc21 | > 100 µM | – |
| C=C1CC=CC(C)(C)C1C/C=C(\C)C(O)CBr (stereo not drawn) | > 100 µM | – |
| CCOC(=O)C(C)NC(=O)N(C)C12CC3CC(CC(C3)C1)C2 (stereo not drawn) | > 500 µM | – |
| CCc1cc(=O)n(/C(C)=C/c2ccccc2)n1C | > 100 µM | – |
| N/C(CSCCSC/C(N)=N/O)=N\O | > 100 µM | – |

The compounds below were run on MALME-3M melanoma (assay: inhibition of tumour cell growth, NCI panel, 48 h).

| Structure (SMILES) | TGI |
| --- | --- |
| CC(O)(C(=O)N(O)c1ccc(Cl)cc1)c1ccc(Cl)cc1 (stereo not drawn) | > 100 µM |
| CCOP(=O)(OCC)c1cc(-c2ccccc2)ccc1N | > 100 µM |
| CC1(C)[C@@H]2C[C@H]1c1cnc(-c3ccccn3)cc1[C@H]2C(O)[C@@H]1c2cc(-c3ccccn3)ncc2[C@H]2C[C@@H]1C2(C)C (stereo partly drawn) | 21.6 µM |
| CC1(C)OC(CCO)CN1C(=O)OCc1ccccc1 (stereo not drawn) | > 100 µM |
| COc1ccc(N2C(=O)C3c4[nH]c5ccccc5c4C4C(C)CCCC4C3C2=O)cc1 (stereo not drawn) | 52.6 µM |
| CCOC(=O)C1=C(C)NC(=O)N([N+](=O)[O-])C1c1ccccc1C(F)(F)F (stereo not drawn) | > 100 µM |
| O=c1c(Cc2ccccc2)c(-c2ccccc2)[nH]n1C1=NCCN1 | > 100 µM |
| Brc1ccc2c(c1)-c1nc3c(cc1CC2)CCc1ccc(Br)cc1-3 | > 100 µM |
| CCOC(=O)Cc1nn2c(=O)cc(C)nc2s1 | > 100 µM |
| COP(=O)(CC(=O)C1OC(OCc2ccccc2)C(OCc2ccccc2)C(OCc2ccccc2)C1OCc1ccccc1)OC (stereo not drawn) | 94.5 µM |
| CN1c2ccccc2C(=O)NC12CCN(CC1COc3ccccc3O1)CC2 (stereo not drawn) | > 100 µM |
| CCOC1NC(=O)c2ccccc21 (stereo not drawn) | > 100 µM |
| CCN(C(=O)N[C@H](C(=O)N[C@@H](C)C(=O)OC)C(C)C)c1ccccc1 | 55.9 µM |
| Cc1cn(C2CC(OC(c3ccccc3)(c3ccccc3)c3ccccc3)C(COC(c3ccccc3)(c3ccccc3)c3ccccc3)O2)c(=O)[nH]c1=O (stereo not drawn) | > 100 µM |
| COc1cc(CCCOC2OC(COC3OCC(O)C(O)C3O)C(O)C(O)C2O)cc2cc(-c3ccc4c(c3)OCO4)oc12 (stereo not drawn) | > 175 µM |
| CCOC(=O)c1ccc(C(=O)/C(C(=O)OC(C)(C)C)=C2\CCCN2C)n1C | > 100 µM |
| O=[N+]([O-])c1ccc2nc3c(nc2c1)-c1c2ccccc2cc2cccc-3c12 | 76.5 µM |
| COc1cc(/C=C/c2cc(=O)cc(/C=C/c3ccc(O)c(OC)c3)o2)ccc1O | > 100 µM |
| COc1cc2c(cc1O)CC[n+]1cc3c(OC)c(OC)ccc3cc1-2 | > 100 µM |
| NS(=O)(=O)c1nnc(NSc2ccc([N+](=O)[O-])cc2)s1 | > 100 µM |
| CCCC[C@@H]1CCN2C[C@@H](O)[C@@H](O)[C@H]2[C@@H]1O | > 100 µM |
| Cc1cc(C)nc(NS(=O)(=O)c2ccc(Nc3c4ccccc4nc4c(C(=O)NCCO)cccc34)cc2)n1 | 28.7 µM |
| O=C(CN=C(CN(c1ccccc1)c1ccccc1)Oc1c(Cl)cc(Cl)cc1Cl)n1cnc2ccccc21 | > 100 µM |
| CCOC(=O)C(C)NC(=O)N(C)C12CC3CC(CC(C3)C1)C2 (stereo not drawn) | 497 µM |
| Nc1n[nH]c2ccccc12 | > 100 µM |
| N/C(CSCCSC/C(N)=N/O)=N\O | > 100 µM |
